Results from ChEMBL document CHEMBL4152305, “Studies on 2-phenylquinoline Staphylococcus aureus NorA efflux pump inhibitors: New insights on the C-6 position” (Eur J Med Chem, 2018).
In brackets after ≈: the same amount, converted by molar mass. Activity calls are given as the source filed them. The rule behind the calls is not given here.

Tests used:
Staphylococcus aureus [1] = assay: Growth inhibition of Staphylococcus aureus ATCC 25923 by microdilution method; format: organism-based; settings: in vivo
Staphylococcus aureus [2] = assay: Growth inhibition of Staphylococcus aureus SA-1199 expressing wild type norA by microdilution method; format: organism-based; settings: in vivo
Staphylococcus aureus [3] = assay: Growth inhibition of Staphylococcus aureus SA-1199B expressing wild type norA and co-expressing GrlA A116E mutant by microdilution method; format: organism-based; settings: in vivo
[4] = target: T1, Quinolone resistance protein NorA (Staphylococcus aureus) (UniProt P0A0J7); assay: Inhibition of Staphylococcus aureus SA-1199B NorA assessed as reduction in EtBr efflux at 50 uM measured over 5 mins by fluorescence assay relative to control
T1 sequence (whole entry): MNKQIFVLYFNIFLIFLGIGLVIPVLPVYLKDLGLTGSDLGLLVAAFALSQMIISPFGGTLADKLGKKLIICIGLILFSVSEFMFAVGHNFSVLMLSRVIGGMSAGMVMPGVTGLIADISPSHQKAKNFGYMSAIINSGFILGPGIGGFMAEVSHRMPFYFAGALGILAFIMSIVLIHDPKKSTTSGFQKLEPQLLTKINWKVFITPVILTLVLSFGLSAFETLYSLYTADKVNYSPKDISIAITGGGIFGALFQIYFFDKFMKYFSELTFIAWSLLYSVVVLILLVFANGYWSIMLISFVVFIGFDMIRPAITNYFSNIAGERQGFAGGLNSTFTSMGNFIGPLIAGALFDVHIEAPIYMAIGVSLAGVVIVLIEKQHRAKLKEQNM

[5] = target: T2, Quinolone resistance protein NorA (Staphylococcus aureus, UniProt P0A0J7); assay: Inhibition of Staphylococcus aureus SA-1199B NorA assessed as reduction in EtBr efflux measured over 5 mins by fluorescence assay
T2 sequence (P0A0J7 whole entry): T1 sequence (whole entry)

Staphylococcus aureus [6] = assay: Growth inhibition of Staphylococcus aureus ATCC 25923 up to 100 ug/ml in presence of ciprofloxacin by checkerboard assay; format: organism-based; settings: in vivo
[7] = target: T1, Quinolone resistance protein NorA (Staphylococcus aureus); assay: Inhibition of Staphylococcus aureus SA-1199 norA assessed as potentiation of ciprofloxacin-induced antibacterial activity up to 100 ug/ml by checkerboard method
[8] = target: T1, Quinolone resistance protein NorA (Staphylococcus aureus); assay: Inhibition of Staphylococcus aureus SA-1199B NorA assessed as potentiation of ciprofloxacin-induced antibacterial activity by measuring minimum potetntiation concentration causing 4 fold reduction in ciprofloxacin MIC by ciprofloxacin assay
[9] = Cytotoxicity against human HepG2 cells assessed as reduction in cell number after 24 hrs by bioluminescence assay; format: cell-based
[10] = Selectivity index, ratio of CC50 for human HepG2 cells to compound effect for inhibition of Staphylococcus aureus SA-1199B NorA assessed as potentiation of ciprofloxacin-induced antibacterial activity by measuring minimum potetntiation concentration causing 4 fold reduction in ciprofloxacin MIC; format: toxicity; settings: read-out: Selectivity Index
[11] = target: T1, Quinolone resistance protein NorA (Staphylococcus aureus); assay: Potency index, ratio of reserpine IC50 to test compound IC50 for Staphylococcus aureus SA-1199B NorA assessed as reduction in EtBr efflux

Structure (SMILES) | MIC (Staphylococcus aureus [1]) | MIC (Staphylococcus aureus [2]) | MIC (Staphylococcus aureus [3]) | inhibition [4] [%] | IC50 [5] [µM] | growth inhibition (GI) (Staphylococcus aureus [6]) | Activity [7] | Activity [8] [µg/mL] | CC50 at 24 h [9] [µg/mL] | selectivity ratio [10] | Ratio IC50 [11]
CCCOc1ccc(-c2cc(OCCN(CC)CC)c3cc(OCCN(CC)CC)ccc3n2)cc1 | 100 µg/mL (≈ 203 µM) | > 100 µg/mL | > 202.6 µM | 81.4 | 10.6 | Non-Toxic | inactive | – | – | – | –
CCCOc1ccc(-c2cc(OCCN3CCCCC3)c3cc(OCCCN(C)C)ccc3n2)cc1 | 100 µg/mL (≈ 203 µM) | 100 µg/mL (≈ 203 µM) | 203.4 µM | 92.5 | 7.2 | Non-Toxic | inactive | 6.25 | – | – | –
CCCOc1ccc(-c2cc(OCCN3CCCCC3)c3cc(OCCN4CCCCC4)ccc3n2)cc1 | Nd(Insoluble) | Nd(Insoluble) | – | – | – | Non-Toxic | inactive | – | – | – | –
CCCOc1ccc(-c2cc(OCCN3CCCCC3)c3cc(OCc4ccccc4)ccc3n2)cc1 | 100 µg/mL (≈ 201 µM) | 100 µg/mL (≈ 201 µM) | – | 76.3 | – | Non-Toxic | inactive | 0.78 | 33.8 (≈ 68.1 µM) | 43.4 | 2
CCCOc1ccc(-c2cc(OCCN(CC)CC)c3cc(OCc4ccccc4)ccc3n2)cc1 | > 100 µg/mL | > 100 µg/mL | – | 91.1 | – | Non-Toxic | inactive | 0.78 | 12.3 (≈ 25.3 µM) | 15.7 | 2
CCCOc1ccc(-c2cc(OCCN(CC)CC)c3cc(OCCN4CCCCC4)ccc3n2)cc1 | Nd(Insoluble) | Nd(Insoluble) | – | – | – | Non-Toxic | inactive | – | – | – | –
COC(=O)[C@H]1[C@H]2C[C@@H]3c4[nH]c5cc(OC)ccc5c4CCN3C[C@H]2C[C@@H](OC(=O)c2cc(OC)c(OC)c(OC)c2)[C@@H]1OC [RESERPINE] | > 100 µg/mL | > 100 µg/mL | > 164 µM | – | 9.2 | – | – | 1.56 | – | – | –
CCCOc1ccc(-c2cc(OCCN(CC)CC)c3ccccc3n2)cc1 | – | – | – | – | 8.9 | – | – | 6.25 | 21.6 (≈ 57 µM) | 3.5 | –
CCCOc1ccc(-c2cc(OCCN3CCCCC3)c3cc(OCCCN4CCOCC4)ccc3n2)cc1 | 100 µg/mL (≈ 187 µM) | 50 µg/mL (≈ 93.7 µM) | 93.7 µM | 93.2 | 4.4 | Non-Toxic | inactive | 6.25 | – | – | 2
CCCOc1ccc(-c2cc(OCCN(CC)CC)c3cc(OCCCN4CCOCC4)ccc3n2)cc1 | 100 µg/mL (≈ 192 µM) | > 100 µg/mL | > 191.7 µM | 91.1 | 5 | Non-Toxic | inactive | 12.5 | – | – | 2
O=C(O)c1cn(C2CC2)c2cc(N3CCNCC3)c(F)cc2c1=O [CIPROFLOXACIN] | 0.63 µg/mL (≈ 1.9 µM) | 0.63 µg/mL (≈ 1.9 µM) | 10 µg/mL | – | – | – | – | – | – | – | –
CCCOc1ccc(-c2cc(OCCN(CC)CC)c3cc(O)ccc3n2)cc1 | 50 µg/mL (≈ 127 µM) | 50 µg/mL (≈ 127 µM) | 126.7 µM | 95 | 5.8 | Non-Toxic | inactive | 1.56 | – | – | 2
CCCOc1ccc(-c2cc(OCCN(CC)CC)c3cc(OCCCN(C)C)ccc3n2)cc1 | 100 µg/mL (≈ 208 µM) | > 100 µg/mL | > 208.5 µM | 80.9 | 8.8 | Non-Toxic | inactive | – | – | – | –
CCCOc1ccc(-c2cc(OCCN3CCCCC3)c3cc(O)ccc3n2)cc1 | 25 µg/mL (≈ 61.5 µM) | 25 µg/mL (≈ 61.5 µM) | 61.5 µM | 87 | 3.3 | Non-Toxic | inactive | 6.25 | – | – | 2
CCCOc1ccc(-c2cc(OCCN3CCCCC3)c3ccccc3n2)cc1 | – | – | – | – | 7.3 | – | – | 1.56 | 38.9 (≈ 99.6 µM) | 24.9 | –
CCCOc1ccc(-c2cc(OCCN3CCCCC3)c3cc(OCCN(CC)CC)ccc3n2)cc1 | 100 µg/mL (≈ 198 µM) | 100 µg/mL (≈ 198 µM) | 197.7 µM | 91.4 | 5.2 | Non-Toxic | inactive | 25 | – | – | 2
